Assay results as given in PMC12095047, “Transport of phenoxyacetic acid herbicides by PIN-FORMED auxin transporters” (Nature Plants, 2025).
Several values for one entry are separate records, joined by “and”; a condition that tells them apart may be missing. Equal entries are not always repeated. Entries after “also recorded” stand apart in the source; their conditions may differ. Where two headings read alike, the source gives them in different places.

What was measured:
A. thaliana PIN8 = molecular target: T1, A. thaliana PIN8 (Arabidopsis thaliana, UniProt Q9LFP6); assay: SSM electrophysiology, peak current response on PIN8 proteoliposomes; assay type: biochemical; conditions: for Peak current: individual sensors
T1 construct: made in house
T1 sequence (Q9LFP6 1-367): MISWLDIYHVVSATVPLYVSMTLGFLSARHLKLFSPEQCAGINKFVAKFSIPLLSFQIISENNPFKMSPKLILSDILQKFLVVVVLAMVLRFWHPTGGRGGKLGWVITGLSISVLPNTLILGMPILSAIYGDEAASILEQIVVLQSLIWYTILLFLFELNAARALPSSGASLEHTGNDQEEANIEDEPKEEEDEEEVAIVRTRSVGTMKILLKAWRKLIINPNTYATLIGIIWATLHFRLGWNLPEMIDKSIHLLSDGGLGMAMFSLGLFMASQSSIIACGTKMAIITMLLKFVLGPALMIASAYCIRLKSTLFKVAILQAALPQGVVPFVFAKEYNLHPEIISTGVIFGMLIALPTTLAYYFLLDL
Method: (§1) SSM, using a SURFE2R N1 from Nanion Technologies, was conducted as described. In brief, soy polar lipid mix (38% phosphatidyl choline, 30% phosphatidyl ethanolamine, 18% phosphatidyl inositol, 7% phosphatidic acid and 7% other soy lipids) and 1-palmitoyl-2-oleoyl-sn-glycero-3-phosphocholin were purchased from Avanti. Liposomes were prepared in Ringer solution without Ca^2+ (115 mM NaCl, 2.5 mM KCl, 1 mM NaHCO3, 10 mM HEPES pH7.4, 1 mM MgCl2) and homogenized using a Lipsofast (Avestin) with a […]. Triton X-100 was added to the liposomes to a final concentration of 1% (v/v). Protein was added to liposomes to a calculated lipid-to-protein ratio (LPR) of 10 unless stated otherwise. The detergent was removed using 400 mg ml^−1 Bio Beads (BioRad) overnight at 4 °C in a rotary shaker. Proteoliposomes were frozen in liquid nitrogen and kept at −80 °C until use. Proteoliposomes were diluted 1:5 in Ringer solution without Ca^2+, sonicated five times and then applied to the sensors by centrifugation (30 min, 3,000 g, 4 °C). Non-activating buffer was Ringer solution without Ca^2+ as described unless specified otherwise, and activating buffer contained the substrate of interest. In most instances we used a single-solution exchange experiment. In this case proteoliposomes, immobilized on the supported membrane, are kept in non-activating buffer as specified. At the beginning of the experiment the non-activating buffer is replaced with fresh identical non-activating buffer, and after 1 s, activating buffer (same buffer containing substrate) is added. After another second, the buffer is replaced with non-activating buffer again. Current response is recorded throughout the entire 3 s. For competition or inhibition, the respective compound was present in non-activating and activating solutions. Each experiment was performed on at least two individual sensors. On each sensor each measurement consists of three technical replicates where the mean is calculated. KD values were determined as described previously. Briefly, the binding current induced by 100 µM NPA was recorded in the presence of different concentrations of the substrate under investigation ranging between 0 µM and 1,000 µM present in the activating solution and the non-activating solution (Extended Data Fig. 5b). […] The maximum peak current was then plotted as a function of the concentration of the substrate under investigation and plotted against the degree of inhibition and fitted with a one-site binding model using GraphPad Prism V10.4.1 The half maximal concentration corresponds to the KD of the substrate under investigation.

PIN8 = molecular target: T2, PIN8 (Arabidopsis thaliana, UniProt Q9LFP6); assay: SSM electrophysiology, KD by inhibition of the NPA binding current
T2 construct: made in house
T2 sequence (Q9LFP6 1-367): T1 sequence (Q9LFP6 1-367)
Method: as §1

PIN8 S146A = molecular target: T3, PIN8 S146A (Arabidopsis thaliana, UniProt Q9LFP6, S146A); assay type: biochemical; conditions: for Peak current: S146A, individual sensors
T3 construct: made in house
Method: as §1
(§2) The protocol for expression and purification of AtPIN8 protein (Uniprot: Q9LFP6) in lauryl maltose neopentyl glycol was described previously. All point mutants were generated using Q5 Site-Directed mutagenesis kit (New England Biolabs). The C-flat Holey Carbon grids (CF-1.2/1.3, Cu-300 mesh) were glow-discharged for 45 s at 15 mA in a GloQube Plus (Quorum). […] After 1 h of incubation on ice, the sample was centrifuged at 16,000 g for 15 min before blotting to remove precipitation. A drop of 4 µl of each sample was applied to the glow-discharged grids, blotted with a Vitrobot Mark IV (ThermoFisher Scientific) using the following settings (temperature 4 °C, 100% humidity, blot time of 4 s, blot force −1) and vitrified in liquid ethane.

PIN8 S266A = molecular target: T4, PIN8 S266A (Arabidopsis thaliana, UniProt Q9LFP6, S266A); assay type: biochemical; conditions: PIN8 S266A, Michaelis–Menten fit
T4 construct: made in house
Method: as §1, §2

PIN8 Y150A = molecular target: T5, PIN8 Y150A (Arabidopsis thaliana, UniProt Q9LFP6, Y150A); assay type: biochemical; conditions: for Peak current: Y150A, individual sensors
T5 construct: made in house
Method: as §1, §2

PIN8 Y150F = molecular target: T6, PIN8 Y150F (Arabidopsis thaliana, UniProt Q9LFP6, Y150F); assay type: biochemical; conditions: PIN8 Y150F, Michaelis–Menten fit
T6 construct: made in house
Method: as §1, §2

PIN8 N117A = molecular target: T7, PIN8 N117A (Arabidopsis thaliana, UniProt Q9LFP6, N117A); assay: SSM electrophysiology peak current, PIN8 N117A proteoliposomes; assay type: biochemical; conditions: for Relative Peak Current of WT (%): Substrate 2,4-D, replicates
T7 construct: made in house
Method: as §1, §2

[1] = molecular target: T8, wild-type PIN8 proteoliposomes (Arabidopsis thaliana, UniProt Q9LFP6); assay: SSM electrophysiology, peak width (FWHM) of current response at LPR10 and LPR50; assay type: biochemical; conditions: LPR10 versus LPR50
T8 construct: made in house
T8 sequence (Q9LFP6 1-367): T1 sequence (Q9LFP6 1-367)
Method: as §1

[2] = WT PIN8 proteoliposomes, Michaelis–Menten fit
[3] = read-out: EC50 of peak current response

T3 sequence (Q9LFP6 whole entry S146A): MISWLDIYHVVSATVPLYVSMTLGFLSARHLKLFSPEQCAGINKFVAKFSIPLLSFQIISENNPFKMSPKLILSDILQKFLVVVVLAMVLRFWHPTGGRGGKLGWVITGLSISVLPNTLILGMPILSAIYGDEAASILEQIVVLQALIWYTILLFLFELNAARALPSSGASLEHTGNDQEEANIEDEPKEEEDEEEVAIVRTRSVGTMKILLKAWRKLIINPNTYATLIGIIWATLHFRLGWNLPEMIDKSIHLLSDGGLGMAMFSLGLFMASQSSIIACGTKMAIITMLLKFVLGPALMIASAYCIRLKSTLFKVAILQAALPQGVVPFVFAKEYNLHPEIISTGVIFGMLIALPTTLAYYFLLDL
T5 sequence (Q9LFP6 whole entry Y150A): as the sequence (Q9LFP6 whole entry S146A) above, with A146S, Y150A counted along it
T7 sequence (Q9LFP6 whole entry N117A): as the sequence (Q9LFP6 whole entry S146A) above, with N117A, A146S counted along it
T4 sequence (Q9LFP6 whole entry S266A): as the sequence (Q9LFP6 whole entry S146A) above, with A146S, S266A counted along it
T6 sequence (Q9LFP6 whole entry Y150F): as the sequence (Q9LFP6 whole entry S146A) above, with A146S, Y150F counted along it

## O=C(O)COc1ccc(Cl)cc1Cl [2,4-D, 2,4-dichlorophenoxyacetic acid]
A. thaliana PIN8; 100 μM 2,4-D, absence of NPA
  Peak current: 3.226 nA and 5.875 nA
A. thaliana PIN8; 100 μM 2,4-D, presence of 20 µM NPA
  Peak current: 0.9715 nA and 1.501 nA and 1.34 nA
A. thaliana PIN8; [2]
  EC50: 180 µM and 179 µM
  maximal current Imax: 17 ± 2 nA
A. thaliana PIN8; WT, 5 µM substrate
  Peak current: 0.6835 nA and 0.6464 nA and 0.7573 nA
A. thaliana PIN8; WT, 20 µM substrate
  Peak current: 2.106 nA and 1.934 nA and 2.262 nA
A. thaliana PIN8; WT, 50 µM substrate
  Peak current: 4.032 nA and 3.705 nA
A. thaliana PIN8; WT, 2000 µM substrate
  Peak current: 15.4919 nA and 14.1952 nA and 17.3107 nA
PIN8; Peak current, sheet F2A (Fig. 2a, KD of substrate binding), individual sensors
  Kd: 64.4 µM and 50.6 µM and 62.3 µM
PIN8; inhibition of peak current elicited by 100 µM NPA, read-out: KD of substrate binding by PIN8
  Kd: 59 ± 7 µM
PIN8; read-out: Rel. Inhibition of NPA peak currents, 20 µM substrate, 100 µM NPA, individual sensors
  inhibition at 20 µM: 22.5%
PIN8; read-out: Rel. Inhibition of NPA peak currents, 50 µM substrate, 100 µM NPA, individual sensors
  inhibition at 50 µM: 46.2%
PIN8; read-out: Rel. Inhibition of NPA peak currents, 100 µM substrate, 100 µM NPA, individual sensors
  inhibition at 100 µM: 65.6%
PIN8; read-out: Rel. Inhibition of NPA peak currents, 250 µM substrate, 100 µM NPA, individual sensors
  inhibition at 250 µM: 83.2%
PIN8; read-out: Rel. Inhibition of NPA peak currents, 500 µM substrate, 100 µM NPA, individual sensors
  inhibition at 500 µM: 91.1%
PIN8; read-out: Rel. Inhibition of NPA peak currents, 1000 µM substrate, 100 µM NPA, individual sensors
  inhibition at 1000 µM: 95.2%
PIN8 S146A; PIN8 S146A, Michaelis–Menten fit
  Imax: 8 ± 0.9 nA
PIN8 S146A; PIN8 S146A, Michaelis–Menten fit, read-out: EC50 of peak current response
  EC50: 164 ± 67 µM
PIN8 S146A; 5 µM substrate
  Peak current: 0.446 nA and 0.486 nA and 0.471 nA and 0.573 nA
PIN8 S146A; 20 µM substrate
  Peak current: 1.337 nA and 0.845 nA and 1.226 nA and 1.49 nA
PIN8 S146A; 50 µM substrate
  Peak current: 2.387 nA and 1.739 nA and 2.167 nA and 2.694 nA
PIN8 S146A; 100 µM substrate
  Peak current: 3.422 nA and 2.581 nA and 3.052 nA and 3.828 nA
PIN8 S146A; 500 µM substrate
  Peak current: 6.088 nA and 4.842 nA and 5.334 nA and 6.787 nA
PIN8 S146A; 1000 µM substrate
  Peak current: 7.15 nA and 6.069 nA and 6.109 nA and 7.864 nA
PIN8 S146A; 2000 µM substrate
  Peak current: 8.119 nA and 7.96 nA and 6.88 nA and 9.033 nA
PIN8 S266A
  Imax: 12 ± 0.7 nA
PIN8 S266A; [3]
  EC50: 774 ± 70 µM
PIN8 Y150A; PIN8 Y150A, Michaelis–Menten fit
  Imax: 5 ± 1 nA
PIN8 Y150A; PIN8 Y150A, Michaelis–Menten fit, read-out: EC50 of peak current response
  EC50: 684 ± 256 µM
PIN8 Y150A; 5 µM substrate
  Peak current: 0.1509 nA and 0.05154 nA and 0.05368 nA and 0.1258 nA
PIN8 Y150A; 20 µM substrate
  Peak current: 0.08307 nA and 0.2336 nA and 0.2155 nA and 0.2901 nA
PIN8 Y150A; 50 µM substrate
  Peak current: 0.3395 nA and 0.5519 nA and 0.4679 nA and 0.5665 nA
PIN8 Y150A; 100 µM substrate
  Peak current: 0.6832 nA and 0.8682 nA and 0.7895 nA and 0.907 nA
PIN8 Y150A; 500 µM substrate
  Peak current: 2.171 nA and 2.337 nA and 2.071 nA and 2.343 nA
PIN8 Y150A; 1000 µM substrate
  Peak current: 3.151 nA and 3.173 nA and 2.762 nA and 3.101 nA
PIN8 Y150A; 2000 µM substrate
  Peak current: 4.437 nA and 4.148 nA and 3.583 nA and 4.038 nA
PIN8 Y150F
  Imax: 8 ± 2 nA
PIN8 Y150F; [3]
  EC50: 816 ± 275 µM
PIN8 N117A; N117A mutation
  current response / function of PIN8 N117A: abolishes the current response; also recorded: abolishes function
PIN8 N117A; 2mM
  Relative Peak Current of WT (%): 22.8804% and 23.9685% and 24.9449% and 20.0988%
PIN8 N117A
  Relative Peak Current of WT (%): 9.311% and 12.1121% and 13.3294% and 14.1031%
[1]
  peak width of SSM-based current response as a function of lipid-to-protein ratio (LPR): vary with lipid-to-protein ratio (LPR)
